Results from PubChem BioAssay (NCI).
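Tested at 5 concentrations; 48 h exposure; 96-well plates; endpoints linearly interpolated, else capped at highest concentration. Definition used: TGI = concentration required for complete inhibition of growth.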

Columns and labels:
Assay in all cases: NCI anticancer screen, dose series, 48 h
M14 melanoma = system: M14 melanoma
SR leukemia = system: SR leukemia
ACHN renal = system: ACHN renal
SK-MEL-28 melanoma = system: SK-MEL-28 melanoma
SK-MEL-2 melanoma = system: SK-MEL-2 melanoma
IGROV1 ovarian = system: IGROV1 ovarian
HL-60(TB) leukemia = system: HL-60(TB) leukemia
MOLT-4 leukemia = system: MOLT-4 leukemia
BT-549 breast = system: BT-549 breast
HCC-2998 colon = system: HCC-2998 colon
HOP-92 NSCLC = system: HOP-92 NSCLC
MDA-MB-435 = system: MDA-MB-435
K-562 leukemia = system: K-562 leukemia
SF-268 CNS = system: SF-268 CNS
SF-539 CNS = system: SF-539 CNS
NCI/ADR-RES ovarian = system: NCI/ADR-RES ovarian
PC-3 prostate = system: PC-3 prostate
MDA-N = system: MDA-N
CAKI-1 renal = system: CAKI-1 renal

| SMILES | TGI (M14 melanoma) | TGI (SR leukemia) | TGI (ACHN renal) | TGI (SK-MEL-28 melanoma) | TGI (SK-MEL-2 melanoma) | TGI (IGROV1 ovarian) | TGI (HL-60(TB) leukemia) | TGI (MOLT-4 leukemia) | TGI (BT-549 breast) | TGI (HCC-2998 colon) | TGI (HOP-92 NSCLC) | TGI (MDA-MB-435) | TGI (K-562 leukemia) | TGI (SF-268 CNS) | TGI (SF-539 CNS) | TGI (NCI/ADR-RES ovarian) | TGI (PC-3 prostate) | TGI (MDA-N) | TGI (CAKI-1 renal) |
| --- | --- | --- | --- | --- | --- | --- | --- | --- | --- | --- | --- | --- | --- | --- | --- | --- | --- | --- | --- |
| CCOC(=O)c1c(N)n(-c2ccccc2)c(=O)n(-c2ccccc2)c1=O | > 100 µM | > 100 µM | > 100 µM | > 100 µM | > 100 µM | > 100 µM | > 100 µM | > 100 µM | > 100 µM | > 100 µM | > 100 µM | > 100 µM | > 100 µM | > 100 µM | – | – | – | – | – |
| COC(=O)C(NC(=O)C(CC(=O)OC(C)(C)C)NC(=O)OC(C)(C)C)C(O)c1ccccc1 (centres undefined) | > 100 µM | – | > 100 µM | > 100 µM | > 100 µM | > 100 µM | – | > 100 µM | > 100 µM | – | – | > 100 µM | > 100 µM | > 100 µM | > 100 µM | > 100 µM | > 100 µM | > 100 µM | > 100 µM |
| S=c1[nH]nc(CNc2ccc(-c3n[nH]c(=S)n3-c3ccc(Cl)cc3)cc2)n1-c1ccc(Cl)cc1 | 68.1 µM | – | > 100 µM | 64.2 µM | 57.7 µM | 47.1 µM | – | > 100 µM | > 100 µM | > 100 µM | 59.1 µM | > 100 µM | > 100 µM | > 100 µM | – | > 100 µM | > 100 µM | 86.1 µM | 40.7 µM |
| COc1cc(NS(C)(=O)=O)ccc1Nc1cc[nH]c2ccc3nccc3c12 | 32.2 µM | – | 32.8 µM | 31.2 µM | 30.9 µM | 31.2 µM | 53.2 µM | – | 28.7 µM | – | 24.8 µM | 30.1 µM | 25.7 µM | 25 µM | – | > 100 µM | 26 µM | 30.8 µM | 32.5 µM |
| CCOC(=O)c1nc2ccc(C(F)(F)F)cc2nc1NCc1ccc(OC)cc1 | > 100 µM | > 100 µM | > 100 µM | – | > 100 µM | > 100 µM | – | > 100 µM | > 100 µM | – | > 100 µM | > 100 µM | > 100 µM | > 100 µM | > 100 µM | > 100 µM | > 100 µM | > 100 µM | > 100 µM |
| O=c1oc2ccccc2nc1/C=C(\O)c1ccc(Cl)cc1 | > 100 µM | > 100 µM | > 100 µM | – | > 100 µM | > 100 µM | – | > 100 µM | > 100 µM | > 100 µM | – | > 100 µM | > 100 µM | > 100 µM | > 100 µM | > 100 µM | > 100 µM | > 100 µM | > 100 µM |
| C#C[C@]1(O)CC[C@H]2[C@@H]3CCC4=C/C(=N/OCCN(C)C)CC[C@]4(C)[C@H]3CC[C@@]21C | 35.2 µM | 67.5 µM | > 100 µM | > 100 µM | > 100 µM | > 100 µM | – | > 100 µM | > 100 µM | > 100 µM | > 100 µM | 32.2 µM | > 100 µM | > 100 µM | – | > 100 µM | > 100 µM | 35.1 µM | > 100 µM |
